According to PubChem BioAssay (NCI):
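Results reflect a 48-hour exposure of cells in 96-well plates to compound at five concentrations. Here, GI50 denotes the concentration required for 50% inhibition of growth. TGI: concentration producing complete growth inhibition.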

Experiments:
Experiment in all cases: DTP human tumour cell line panel, 48 h
NCI-H23 lung = tested on: NCI-H23 lung
MALME-3M melanoma = tested on: MALME-3M melanoma
T-47D breast = tested on: T-47D breast
DU-145 prostate = tested on: DU-145 prostate
COLO 205 colon = tested on: COLO 205 colon
786-0 renal = tested on: 786-0 renal
NCI-H522 lung = tested on: NCI-H522 lung
SF-295 CNS = tested on: SF-295 CNS
UACC-62 melanoma = tested on: UACC-62 melanoma
OVCAR-5 ovarian = tested on: OVCAR-5 ovarian
MDA-MB-435 = tested on: MDA-MB-435
M14 melanoma = tested on: M14 melanoma
SNB-75 CNS = tested on: SNB-75 CNS
NCI-H226 lung = tested on: NCI-H226 lung
UACC-257 melanoma = tested on: UACC-257 melanoma
TK-10 renal = tested on: TK-10 renal
HOP-92 NSCLC = tested on: HOP-92 NSCLC
HL-60(TB) leukemia = tested on: HL-60(TB) leukemia
SF-268 CNS = tested on: SF-268 CNS
SK-MEL-28 melanoma = tested on: SK-MEL-28 melanoma
OVCAR-3 ovarian = tested on: OVCAR-3 ovarian
HCT-116 colon = tested on: HCT-116 colon
OVCAR-4 ovarian = tested on: OVCAR-4 ovarian
A549 NSCLC = tested on: A549 NSCLC
SR leukemia = tested on: SR leukemia
PC-3 prostate = tested on: PC-3 prostate
KM12 colon = tested on: KM12 colon
RXF 393 renal = tested on: RXF 393 renal
U251 CNS = tested on: U251 CNS
ACHN renal = tested on: ACHN renal
IGROV1 ovarian = tested on: IGROV1 ovarian
CAKI-1 renal = tested on: CAKI-1 renal
K-562 leukemia = tested on: K-562 leukemia
HS 578T breast = tested on: HS 578T breast
HT29 colon = tested on: HT29 colon
SK-OV-3 ovarian = tested on: SK-OV-3 ovarian
HOP-62 NSCLC = tested on: HOP-62 NSCLC
RPMI-8226 leukemia = tested on: RPMI-8226 leukemia
MOLT-4 leukemia = tested on: MOLT-4 leukemia
UO-31 renal = tested on: UO-31 renal
NCI/ADR-RES ovarian = tested on: NCI/ADR-RES ovarian
MCF7 breast = tested on: MCF7 breast
LOX IMVI melanoma = tested on: LOX IMVI melanoma
SK-MEL-2 melanoma = tested on: SK-MEL-2 melanoma
SW-620 colon = tested on: SW-620 colon
OVCAR-8 ovarian = tested on: OVCAR-8 ovarian
HCC-2998 colon = tested on: HCC-2998 colon
SF-539 CNS = tested on: SF-539 CNS
BT-549 breast = tested on: BT-549 breast
NCI-H460 lung = tested on: NCI-H460 lung
CCRF-CEM leukemia = tested on: CCRF-CEM leukemia
SK-MEL-5 melanoma = tested on: SK-MEL-5 melanoma
SN12C renal = tested on: SN12C renal
A498 renal = tested on: A498 renal
SNB-19 CNS = tested on: SNB-19 CNS
MDA-MB-231 breast = tested on: MDA-MB-231 breast
HCT-15 colon = tested on: HCT-15 colon
EKVX NSCLC = tested on: EKVX NSCLC

Cn1ccnc1C(=O)/C=C/c1ccc(C(=O)Nc2ccc(F)cc2)cc1
GI50 (NCI-H23 lung): 1.3 µM | TGI (NCI-H23 lung): 5.36 µM | GI50 (MALME-3M melanoma): 3.27 µM | TGI (MALME-3M melanoma): > 50 µM | GI50 (T-47D breast): 1.24 µM | TGI (T-47D breast): > 50 µM | GI50 (DU-145 prostate): 1.61 µM | TGI (DU-145 prostate): > 50 µM | GI50 (COLO 205 colon): 1.47 µM | TGI (COLO 205 colon): 5.42 µM | GI50 (786-0 renal): 1.14 µM | TGI (786-0 renal): 3.14 µM | GI50 (NCI-H522 lung): 1.17 µM | TGI (NCI-H522 lung): 4.7 µM | GI50 (SF-295 CNS): 1.82 µM | TGI (SF-295 CNS): > 37.1 µM | GI50 (UACC-62 melanoma): 1.37 µM | TGI (UACC-62 melanoma): 4.86 µM | GI50 (OVCAR-5 ovarian): 1.54 µM | TGI (OVCAR-5 ovarian): 26.5 µM | GI50 (MDA-MB-435): 1.59 µM | TGI (MDA-MB-435): 11 µM | GI50 (M14 melanoma): 1.16 µM | TGI (M14 melanoma): 3.81 µM | GI50 (SNB-75 CNS): 0.919 µM | TGI (SNB-75 CNS): 16.8 µM | GI50 (NCI-H226 lung): 1.51 µM | TGI (NCI-H226 lung): > 12.4 µM | GI50 (UACC-257 melanoma): 3.14 µM | TGI (UACC-257 melanoma): > 50 µM | GI50 (TK-10 renal): 1.51 µM | TGI (TK-10 renal): 7.49 µM | GI50 (HOP-92 NSCLC): 1.31 µM | TGI (HOP-92 NSCLC): > 41 µM | GI50 (HL-60(TB) leukemia): 0.933 µM | TGI (HL-60(TB) leukemia): 3.12 µM | GI50 (SF-268 CNS): 1.91 µM | TGI (SF-268 CNS): > 50 µM | GI50 (SK-MEL-28 melanoma): 1.8 µM | TGI (SK-MEL-28 melanoma): 9.65 µM | GI50 (OVCAR-3 ovarian): 0.812 µM | TGI (OVCAR-3 ovarian): 4.28 µM | GI50 (HCT-116 colon): 0.343 µM | TGI (HCT-116 colon): 1.12 µM | GI50 (OVCAR-4 ovarian): 1.38 µM | TGI (OVCAR-4 ovarian): > 50 µM | GI50 (A549 NSCLC): 1.41 µM | TGI (A549 NSCLC): > 50 µM | GI50 (SR leukemia): 0.171 µM | TGI (SR leukemia): 3.11 µM | GI50 (PC-3 prostate): 1.25 µM | TGI (PC-3 prostate): > 50 µM | GI50 (KM12 colon): 0.481 µM | TGI (KM12 colon): 2 µM | GI50 (RXF 393 renal): 0.78 µM | TGI (RXF 393 renal): 1.64 µM | GI50 (U251 CNS): 0.747 µM | TGI (U251 CNS): 2.71 µM | GI50 (ACHN renal): 1.01 µM | TGI (ACHN renal): 2.11 µM | GI50 (IGROV1 ovarian): 1.24 µM | TGI (IGROV1 ovarian): 4.44 µM | GI50 (CAKI-1 renal): 1.07 µM | TGI (CAKI-1 renal): > 50 µM | GI50 (K-562 leukemia): 0.163 µM | TGI (K-562 leukemia): > 50 µM | GI50 (HS 578T breast): 1.66 µM | TGI (HS 578T breast): > 50 µM | GI50 (HT29 colon): 0.877 µM | TGI (HT29 colon): > 50 µM | GI50 (SK-OV-3 ovarian): 2.55 µM | TGI (SK-OV-3 ovarian): > 50 µM | GI50 (HOP-62 NSCLC): 1.38 µM | TGI (HOP-62 NSCLC): > 16.4 µM | GI50 (RPMI-8226 leukemia): 0.224 µM | TGI (RPMI-8226 leukemia): 1.54 µM | GI50 (MOLT-4 leukemia): 1.48 µM | TGI (MOLT-4 leukemia): > 50 µM | GI50 (UO-31 renal): 0.814 µM | TGI (UO-31 renal): 2.69 µM | GI50 (NCI/ADR-RES ovarian): 1.25 µM | TGI (NCI/ADR-RES ovarian): > 50 µM | GI50 (MCF7 breast): 0.472 µM | TGI (MCF7 breast): > 50 µM | GI50 (LOX IMVI melanoma): 0.52 µM | TGI (LOX IMVI melanoma): 1.35 µM | GI50 (SK-MEL-2 melanoma): 5.66 µM | TGI (SK-MEL-2 melanoma): 39.7 µM | GI50 (SW-620 colon): 0.223 µM | TGI (SW-620 colon): 7.97 µM | GI50 (OVCAR-8 ovarian): 1.49 µM | TGI (OVCAR-8 ovarian): > 50 µM | GI50 (HCC-2998 colon): 0.915 µM | TGI (HCC-2998 colon): 2 µM | GI50 (SF-539 CNS): 0.851 µM | TGI (SF-539 CNS): 1.79 µM | GI50 (BT-549 breast): 0.667 µM | TGI (BT-549 breast): 4.22 µM | GI50 (NCI-H460 lung): 1.06 µM | TGI (NCI-H460 lung): 2.66 µM | GI50 (CCRF-CEM leukemia): 0.853 µM | TGI (CCRF-CEM leukemia): > 50 µM | GI50 (SK-MEL-5 melanoma): 1.49 µM | TGI (SK-MEL-5 melanoma): 4.63 µM | GI50 (SN12C renal): 1.37 µM | TGI (SN12C renal): > 50 µM | GI50 (A498 renal): 1.05 µM | TGI (A498 renal): 3.53 µM | GI50 (SNB-19 CNS): 1.36 µM | TGI (SNB-19 CNS): 6.31 µM | GI50 (MDA-MB-231 breast): 1.71 µM | TGI (MDA-MB-231 breast): > 50 µM | GI50 (HCT-15 colon): 0.274 µM | TGI (HCT-15 colon): 2.5 µM | GI50 (EKVX NSCLC): 2.2 µM | TGI (EKVX NSCLC): 20.8 µM

CCOC(=O)/C=C(\C)Sc1cc(O)c2ccccc2c1O
TGI (NCI-H23 lung): > 100 µM | TGI (MALME-3M melanoma): 29.1 µM | TGI (T-47D breast): 9.9 µM | TGI (DU-145 prostate): > 100 µM | TGI (COLO 205 colon): 35.1 µM | TGI (786-0 renal): 44.2 µM | TGI (NCI-H522 lung): 24.9 µM | TGI (SF-295 CNS): 51.6 µM | TGI (UACC-62 melanoma): 60.1 µM | TGI (OVCAR-5 ovarian): 54.3 µM | TGI (MDA-MB-435): 5.8 µM | TGI (M14 melanoma): 52.5 µM | TGI (SNB-75 CNS): 23.8 µM | TGI (NCI-H226 lung): 61.3 µM | TGI (UACC-257 melanoma): 35.6 µM | TGI (TK-10 renal): 53.8 µM | TGI (HOP-92 NSCLC): 62.4 µM | TGI (HL-60(TB) leukemia): 88.7 µM | TGI (SF-268 CNS): 25 µM | TGI (SK-MEL-28 melanoma): 30.4 µM | TGI (OVCAR-3 ovarian): > 100 µM | TGI (HCT-116 colon): > 100 µM | TGI (OVCAR-4 ovarian): 32 µM | TGI (A549 NSCLC): 85.9 µM | TGI (SR leukemia): > 100 µM | TGI (PC-3 prostate): 67.2 µM | TGI (KM12 colon): 75.4 µM | TGI (RXF 393 renal): 31.9 µM | TGI (U251 CNS): 40.9 µM | TGI (ACHN renal): 29.7 µM | TGI (IGROV1 ovarian): 27.7 µM | TGI (CAKI-1 renal): 46.8 µM | TGI (K-562 leukemia): > 100 µM | TGI (HS 578T breast): > 100 µM | TGI (HT29 colon): 42.9 µM | TGI (SK-OV-3 ovarian): 66.4 µM | TGI (HOP-62 NSCLC): 39.8 µM | TGI (RPMI-8226 leukemia): > 100 µM | TGI (MOLT-4 leukemia): > 100 µM | TGI (UO-31 renal): 18.9 µM | TGI (NCI/ADR-RES ovarian): 86.7 µM | TGI (MCF7 breast): 65.6 µM | TGI (LOX IMVI melanoma): 92.2 µM | TGI (SK-MEL-2 melanoma): 50.5 µM | TGI (SW-620 colon): > 100 µM | TGI (OVCAR-8 ovarian): 42.4 µM | TGI (HCC-2998 colon): 28.1 µM | TGI (SF-539 CNS): 45 µM | TGI (BT-549 breast): 40.9 µM | TGI (NCI-H460 lung): 44.6 µM | TGI (CCRF-CEM leukemia): > 100 µM | TGI (SK-MEL-5 melanoma): 26.6 µM | TGI (SN12C renal): 83.5 µM | TGI (A498 renal): 41.1 µM | TGI (SNB-19 CNS): 34.1 µM | TGI (MDA-MB-231 breast): 44.2 µM | TGI (HCT-15 colon): 37.8 µM | TGI (EKVX NSCLC): 81.9 µM
